Source: ChEMBL document CHEMBL5463729, “Data for DCP probe BAY 1753011” (2023)
The source made the active and inactive calls. No cut-off for these calls is given here.

Experiments:
[1] = molecular target: Serine/threonine-protein kinase Nek7 (Homo sapiens) (UniProt Q8TDX7); experiment: Inhibition of NEK7(h) at 10.0 µM in the Eurofins Kinase panel; details: Compound concentration 10.0 uM
[2] = molecular target: Kappa-type opioid receptor (Homo sapiens, UniProt P41145); details: Compound concentration 10.0 uM
[3] = molecular target: TGF-beta receptor type-1 (Homo sapiens) (UniProt P36897); experiment: Inhibition of TGFBR1(h) at 10.0 µM in the Eurofins Kinase panel; details: Compound concentration 10.0 uM
[4] = molecular target: Mitogen-activated protein kinase kinase kinase 11 (Homo sapiens) (UniProt Q16584); experiment: Inhibition of MLK3(h) at 10.0 µM in the Eurofins Kinase panel; details: Compound concentration 10.0 uM
[5] = molecular target: Serine/threonine-protein kinase DCLK3 (Homo sapiens) (UniProt Q9C098); experiment: Inhibition of DCAMKL3(h) at 10.0 µM in the Eurofins Kinase panel; details: Compound concentration 10.0 uM
[6] = molecular target: Serine/threonine-protein kinase SIK2 (Homo sapiens) (UniProt Q9H0K1); experiment: Inhibition of SIK2(h) at 10.0 µM in the Eurofins Kinase panel; details: Compound concentration 10.0 uM
[7] = molecular target: Serine/threonine-protein kinase 35 (Homo sapiens) (UniProt Q8TDR2); experiment: Inhibition of CLIK1(h) at 10.0 µM in the Eurofins Kinase panel; details: Compound concentration 10.0 uM
[8] = molecular target: Homeodomain-interacting protein kinase 1 (Homo sapiens) (UniProt Q86Z02); experiment: Inhibition of HIPK1(h) at 10.0 µM in the Eurofins Kinase panel; details: Compound concentration 10.0 uM
[9] = molecular target: Mitogen-activated protein kinase kinase kinase 5 (Homo sapiens) (UniProt Q99683); experiment: Inhibition of ASK1(h) at 10.0 µM in the Eurofins Kinase panel; details: Compound concentration 10.0 uM
[10] = molecular target: Tyrosine-protein kinase Fyn (Homo sapiens) (UniProt P06241); experiment: Inhibition of Fyn(h) at 10.0 µM in the Eurofins Kinase panel; details: Compound concentration 10.0 uM
[11] = molecular target: Interleukin-1 receptor-associated kinase 1 (Homo sapiens) (UniProt P51617); experiment: Inhibition of IRAK1(h) at 10.0 µM in the Eurofins Kinase panel; details: Compound concentration 10.0 uM
[12] = molecular target: Non-receptor tyrosine-protein kinase TYK2 (Homo sapiens) (UniProt P29597); experiment: Inhibition of TYK2(h) at 10.0 µM in the Eurofins Kinase panel; details: Compound concentration 10.0 uM
[13] = molecular target: Serine/threonine-protein kinase NIM1 (Homo sapiens) (UniProt Q8IY84); experiment: Inhibition of NIM1(h) at 10.0 µM in the Eurofins Kinase panel; details: Compound concentration 10.0 uM
[14] = molecular target: Calcium/calmodulin-dependent protein kinase type 1 (Homo sapiens) (UniProt Q14012); experiment: Inhibition of CaMKI(h) at 10.0 µM in the Eurofins Kinase panel; details: Compound concentration 10.0 uM
[15] = molecular target: Protein kinase C epsilon type (Homo sapiens) (UniProt Q02156); experiment: Inhibition of PKCepsilon(h) at 10.0 µM in the Eurofins Kinase panel; details: Compound concentration 10.0 uM
[16] = molecular target: Bone morphogenetic protein receptor type-2 (Homo sapiens) (UniProt Q13873); experiment: Inhibition of BMPR2(h) at 10.0 µM in the Eurofins Kinase panel; details: Compound concentration 10.0 uM
[17] = molecular target: Vasopressin V1a receptor (Homo sapiens, UniProt P37288); experiment: Inhibition of Vasopressin V1A at 10.0 µM in the Eurofins-Panlabs selectivity screen
[18] = molecular target: Maternal embryonic leucine zipper kinase (Homo sapiens) (UniProt Q14680); experiment: Inhibition of MELK(h) at 10.0 µM in the Eurofins Kinase panel; details: Compound concentration 10.0 uM
[19] = molecular target: Interferon-induced, double-stranded RNA-activated protein kinase (Homo sapiens) (UniProt P19525); experiment: Inhibition of PKR(h) at 10.0 µM in the Eurofins Kinase panel; details: Compound concentration 10.0 uM
[20] = molecular target: Tribbles homolog 2 (Homo sapiens) (UniProt Q92519); experiment: Inhibition of TRB2(h) at 10.0 µM in the Eurofins Kinase panel; details: Compound concentration 10.0 uM
[21] = molecular target: Beta-adrenergic receptor kinase 1 (Homo sapiens) (UniProt P25098); experiment: Inhibition of GRK2(h) at 10.0 µM in the Eurofins Kinase panel; details: Compound concentration 10.0 uM
[22] = molecular target: Phosphorylase b kinase gamma catalytic chain, skeletal muscle/heart isoform (Homo sapiens) (UniProt Q16816); experiment: Inhibition of PhKgamma1(h) at 10.0 µM in the Eurofins Kinase panel; details: Compound concentration 10.0 uM
[23] = molecular target: T1, 5-hydroxytryptamine receptor 3A (Homo sapiens) (UniProt P46098); details: Compound concentration 10.0 uM
T1 sequence (whole entry): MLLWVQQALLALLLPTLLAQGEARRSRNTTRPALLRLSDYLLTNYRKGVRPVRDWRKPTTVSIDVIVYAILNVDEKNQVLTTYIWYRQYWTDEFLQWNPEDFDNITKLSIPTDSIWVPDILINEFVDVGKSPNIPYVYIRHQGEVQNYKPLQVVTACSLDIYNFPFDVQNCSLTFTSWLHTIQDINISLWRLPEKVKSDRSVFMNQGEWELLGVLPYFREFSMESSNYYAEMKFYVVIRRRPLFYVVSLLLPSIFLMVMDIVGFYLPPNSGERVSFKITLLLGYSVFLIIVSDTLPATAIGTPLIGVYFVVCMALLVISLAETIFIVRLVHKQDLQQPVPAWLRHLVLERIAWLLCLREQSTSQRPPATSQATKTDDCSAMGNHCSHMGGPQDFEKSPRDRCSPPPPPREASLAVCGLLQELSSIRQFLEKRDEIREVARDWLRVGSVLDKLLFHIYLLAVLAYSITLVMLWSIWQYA

[24] = molecular target: Sodium-dependent serotonin transporter (Homo sapiens) (UniProt P31645); details: Compound concentration 10.0 uM
[25] = molecular target: Receptor-interacting serine/threonine-protein kinase 1 (Homo sapiens) (UniProt Q13546); experiment: Inhibition of RIPK1(h) at 10.0 µM in the Eurofins Kinase panel; details: Compound concentration 10.0 uM
[26] = molecular target: Ribosomal protein S6 kinase alpha-5 (Homo sapiens) (UniProt O75582); experiment: Inhibition of MSK1(h) at 10.0 µM in the Eurofins Kinase panel; details: Compound concentration 10.0 uM
[27] = molecular target: Tyrosine-protein kinase receptor UFO (Homo sapiens) (UniProt P30530); experiment: Inhibition of Axl(h) at 10.0 µM in the Eurofins Kinase panel; details: Compound concentration 10.0 uM
[28] = molecular target: Sigma non-opioid intracellular receptor 1 (Homo sapiens) (UniProt Q99720); details: Compound concentration 10.0 uM
Sigma non-opioid intracellular receptor 1 (Homo sapiens), sequence (Q99720 whole entry): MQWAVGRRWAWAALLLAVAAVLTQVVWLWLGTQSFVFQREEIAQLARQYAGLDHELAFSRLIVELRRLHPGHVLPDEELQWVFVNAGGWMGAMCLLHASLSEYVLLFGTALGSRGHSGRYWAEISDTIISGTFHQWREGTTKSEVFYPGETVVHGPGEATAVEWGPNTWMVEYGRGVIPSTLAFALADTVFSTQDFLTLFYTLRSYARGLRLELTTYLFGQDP

Serine/threonine-protein kinase DCLK3 (Homo sapiens), sequence (Q9C098 whole entry): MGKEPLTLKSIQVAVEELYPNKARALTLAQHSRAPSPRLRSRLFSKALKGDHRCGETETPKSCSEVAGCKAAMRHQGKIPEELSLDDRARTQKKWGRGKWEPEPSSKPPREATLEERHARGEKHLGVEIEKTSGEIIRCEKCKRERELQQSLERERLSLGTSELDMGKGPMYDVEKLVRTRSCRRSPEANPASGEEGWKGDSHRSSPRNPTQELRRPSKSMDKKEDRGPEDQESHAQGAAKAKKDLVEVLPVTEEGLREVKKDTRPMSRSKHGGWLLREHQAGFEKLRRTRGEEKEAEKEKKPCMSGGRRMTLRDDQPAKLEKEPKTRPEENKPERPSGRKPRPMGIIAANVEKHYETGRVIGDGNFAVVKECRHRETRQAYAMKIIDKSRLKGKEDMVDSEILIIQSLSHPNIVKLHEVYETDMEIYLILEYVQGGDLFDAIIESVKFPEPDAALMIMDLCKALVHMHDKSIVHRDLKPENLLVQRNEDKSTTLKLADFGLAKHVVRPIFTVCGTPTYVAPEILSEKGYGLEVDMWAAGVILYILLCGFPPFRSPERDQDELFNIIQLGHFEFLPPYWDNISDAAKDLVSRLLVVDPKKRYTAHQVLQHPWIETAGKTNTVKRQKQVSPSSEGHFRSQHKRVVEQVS
Tyrosine-protein kinase receptor UFO (Homo sapiens), sequence (P30530 whole entry): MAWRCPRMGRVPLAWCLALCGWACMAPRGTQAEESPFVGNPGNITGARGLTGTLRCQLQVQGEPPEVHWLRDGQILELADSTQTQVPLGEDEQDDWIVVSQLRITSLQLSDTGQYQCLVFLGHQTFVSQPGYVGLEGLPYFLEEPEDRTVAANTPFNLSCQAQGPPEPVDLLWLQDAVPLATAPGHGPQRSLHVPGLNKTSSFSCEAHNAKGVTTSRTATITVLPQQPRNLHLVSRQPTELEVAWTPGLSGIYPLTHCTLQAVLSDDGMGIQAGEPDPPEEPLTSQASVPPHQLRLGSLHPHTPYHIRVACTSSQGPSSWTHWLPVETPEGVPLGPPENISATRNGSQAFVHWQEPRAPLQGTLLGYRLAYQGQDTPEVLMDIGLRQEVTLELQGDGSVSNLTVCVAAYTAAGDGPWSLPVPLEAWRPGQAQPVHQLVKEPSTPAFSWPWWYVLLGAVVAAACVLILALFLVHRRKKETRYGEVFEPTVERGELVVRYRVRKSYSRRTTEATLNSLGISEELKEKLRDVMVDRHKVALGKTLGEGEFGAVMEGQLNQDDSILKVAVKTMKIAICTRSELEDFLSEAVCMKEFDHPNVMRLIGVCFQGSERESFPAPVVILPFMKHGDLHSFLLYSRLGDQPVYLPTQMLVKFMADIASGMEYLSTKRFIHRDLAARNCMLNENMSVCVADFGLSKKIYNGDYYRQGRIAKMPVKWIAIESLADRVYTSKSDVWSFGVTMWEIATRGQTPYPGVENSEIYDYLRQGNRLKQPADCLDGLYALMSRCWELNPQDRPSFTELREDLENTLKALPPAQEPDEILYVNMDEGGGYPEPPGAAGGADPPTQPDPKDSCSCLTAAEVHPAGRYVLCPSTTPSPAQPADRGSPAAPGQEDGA
Serine/threonine-protein kinase 35 (Homo sapiens), sequence (Q8TDR2 whole entry): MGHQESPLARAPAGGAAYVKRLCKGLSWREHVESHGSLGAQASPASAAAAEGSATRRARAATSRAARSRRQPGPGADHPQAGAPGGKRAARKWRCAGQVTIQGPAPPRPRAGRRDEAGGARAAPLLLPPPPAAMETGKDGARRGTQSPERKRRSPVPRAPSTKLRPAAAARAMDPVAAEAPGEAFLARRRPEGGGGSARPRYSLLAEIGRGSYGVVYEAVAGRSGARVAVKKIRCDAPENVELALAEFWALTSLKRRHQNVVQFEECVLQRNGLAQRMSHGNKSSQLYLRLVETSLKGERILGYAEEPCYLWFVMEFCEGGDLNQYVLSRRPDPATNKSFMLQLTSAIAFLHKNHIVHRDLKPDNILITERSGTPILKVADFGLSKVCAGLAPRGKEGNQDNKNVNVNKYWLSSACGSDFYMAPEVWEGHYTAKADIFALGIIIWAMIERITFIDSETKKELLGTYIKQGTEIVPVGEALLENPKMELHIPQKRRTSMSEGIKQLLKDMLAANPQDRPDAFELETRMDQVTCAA
Interleukin-1 receptor-associated kinase 1 (Homo sapiens), sequence (P51617 whole entry, looked up): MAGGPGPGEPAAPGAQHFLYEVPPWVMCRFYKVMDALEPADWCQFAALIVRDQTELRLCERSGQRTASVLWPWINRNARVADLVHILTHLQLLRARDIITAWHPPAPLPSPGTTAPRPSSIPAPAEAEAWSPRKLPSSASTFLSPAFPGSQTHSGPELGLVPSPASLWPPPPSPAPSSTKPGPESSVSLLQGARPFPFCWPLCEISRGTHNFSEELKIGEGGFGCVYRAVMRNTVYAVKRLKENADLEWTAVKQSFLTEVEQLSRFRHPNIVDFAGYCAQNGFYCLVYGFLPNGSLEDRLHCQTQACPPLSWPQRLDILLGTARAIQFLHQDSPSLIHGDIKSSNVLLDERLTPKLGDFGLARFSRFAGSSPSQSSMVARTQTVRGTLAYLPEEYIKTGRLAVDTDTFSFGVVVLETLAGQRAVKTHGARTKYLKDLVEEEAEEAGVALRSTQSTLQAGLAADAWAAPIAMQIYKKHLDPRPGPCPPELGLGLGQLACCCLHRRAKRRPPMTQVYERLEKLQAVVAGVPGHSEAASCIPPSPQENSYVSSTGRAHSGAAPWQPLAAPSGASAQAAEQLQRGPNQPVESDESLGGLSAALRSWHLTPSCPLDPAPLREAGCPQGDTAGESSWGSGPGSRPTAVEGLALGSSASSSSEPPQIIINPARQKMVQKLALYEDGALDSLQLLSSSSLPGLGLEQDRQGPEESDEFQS
Ribosomal protein S6 kinase alpha-5 (Homo sapiens), sequence (O75582 whole entry, looked up): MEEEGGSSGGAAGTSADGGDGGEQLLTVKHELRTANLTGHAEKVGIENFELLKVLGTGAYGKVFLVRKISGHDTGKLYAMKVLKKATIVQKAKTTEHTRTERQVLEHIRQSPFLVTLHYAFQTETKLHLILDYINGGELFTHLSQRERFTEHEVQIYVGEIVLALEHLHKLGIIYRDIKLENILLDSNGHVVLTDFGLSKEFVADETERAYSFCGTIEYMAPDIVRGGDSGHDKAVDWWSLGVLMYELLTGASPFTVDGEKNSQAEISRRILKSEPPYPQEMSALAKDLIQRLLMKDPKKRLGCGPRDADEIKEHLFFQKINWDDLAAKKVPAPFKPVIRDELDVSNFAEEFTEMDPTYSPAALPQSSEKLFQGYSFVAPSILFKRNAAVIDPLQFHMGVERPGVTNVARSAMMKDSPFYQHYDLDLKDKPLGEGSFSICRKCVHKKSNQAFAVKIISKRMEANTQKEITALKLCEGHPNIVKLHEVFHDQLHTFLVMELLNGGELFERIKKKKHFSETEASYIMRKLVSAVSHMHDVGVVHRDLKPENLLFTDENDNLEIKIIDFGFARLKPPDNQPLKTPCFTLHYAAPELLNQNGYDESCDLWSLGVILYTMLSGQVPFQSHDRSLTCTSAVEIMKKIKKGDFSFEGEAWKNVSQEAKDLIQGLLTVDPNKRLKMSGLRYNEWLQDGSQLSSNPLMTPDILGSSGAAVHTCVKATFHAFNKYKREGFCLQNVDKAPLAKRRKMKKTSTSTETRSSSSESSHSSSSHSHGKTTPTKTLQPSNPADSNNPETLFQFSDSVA
Serine/threonine-protein kinase NIM1 (Homo sapiens), sequence (Q8IY84 whole entry): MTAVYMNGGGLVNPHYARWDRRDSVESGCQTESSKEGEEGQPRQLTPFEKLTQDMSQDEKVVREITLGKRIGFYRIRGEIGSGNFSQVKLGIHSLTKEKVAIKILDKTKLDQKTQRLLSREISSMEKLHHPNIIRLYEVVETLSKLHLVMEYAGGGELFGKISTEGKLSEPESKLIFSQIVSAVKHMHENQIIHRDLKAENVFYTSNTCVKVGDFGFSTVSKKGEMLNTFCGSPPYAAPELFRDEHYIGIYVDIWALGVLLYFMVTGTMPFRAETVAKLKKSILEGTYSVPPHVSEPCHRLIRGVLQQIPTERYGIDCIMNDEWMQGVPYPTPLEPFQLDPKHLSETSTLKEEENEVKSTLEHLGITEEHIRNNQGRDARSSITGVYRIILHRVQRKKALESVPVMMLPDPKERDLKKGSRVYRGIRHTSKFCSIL
Serine/threonine-protein kinase Nek7 (Homo sapiens), sequence (Q8TDX7 whole entry, looked up): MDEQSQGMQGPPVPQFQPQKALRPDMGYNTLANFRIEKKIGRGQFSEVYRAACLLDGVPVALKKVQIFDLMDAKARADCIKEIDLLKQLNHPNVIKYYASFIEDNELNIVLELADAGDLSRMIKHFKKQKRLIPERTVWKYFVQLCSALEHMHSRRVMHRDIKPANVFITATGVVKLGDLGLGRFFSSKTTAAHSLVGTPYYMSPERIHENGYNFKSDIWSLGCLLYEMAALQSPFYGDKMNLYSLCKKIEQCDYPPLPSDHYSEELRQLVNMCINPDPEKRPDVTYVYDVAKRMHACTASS
Phosphorylase b kinase gamma catalytic chain, skeletal muscle/heart isoform (Homo sapiens), sequence (Q16816 whole entry, looked up, canonical isoform): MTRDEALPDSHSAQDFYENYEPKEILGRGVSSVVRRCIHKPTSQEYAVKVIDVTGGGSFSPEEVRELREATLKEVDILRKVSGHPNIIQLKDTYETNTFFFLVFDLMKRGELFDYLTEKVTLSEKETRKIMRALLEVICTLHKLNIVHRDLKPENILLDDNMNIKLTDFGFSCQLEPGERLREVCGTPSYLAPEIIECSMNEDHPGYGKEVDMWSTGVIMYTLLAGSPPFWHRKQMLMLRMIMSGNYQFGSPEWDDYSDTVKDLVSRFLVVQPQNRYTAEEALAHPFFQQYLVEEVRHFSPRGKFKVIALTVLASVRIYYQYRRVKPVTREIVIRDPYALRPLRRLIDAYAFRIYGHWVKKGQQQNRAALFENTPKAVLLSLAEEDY

Structure (SMILES) | inhibition [1] | inhibition [2] | inhibition [3] | inhibition [4] | inhibition [5] | inhibition [6] | inhibition [7] | inhibition [8] | inhibition [9] | inhibition [10] | inhibition [11] | inhibition [12] | inhibition [13] | inhibition [14] | inhibition [15] | inhibition [16] | Ki [17] | inhibition [18] | inhibition [19] | inhibition [20] | further results
O=c1n(Cc2cncn2-c2cccc(Cl)c2)nc(-c2ccc(Cl)cc2)n1C[C@H](O)C(F)(F)F | 1.5% | 10% | 3.39% | 14.9% | -6.07% | 1.82% | 7.34% | 1.31% | -1.47% | 5.53% | 1.24% | 5.83% | 3.02% | -4.98% | 11% | 14.4% | > 10 µM (not active) | 8.95% | -3.03% | 3.48% | inhibition [21]: -6.21%; inhibition [22]: 7.19%; inhibition [23]: -2.44%; inhibition [24]: 1%; inhibition [25]: 2.04%; inhibition [26]: -0.53%; inhibition [27]: 3.23%; inhibition [28]: 24.1%
C[C@H](O)c1nc(Cn2nc(-c3ccc(Cl)cc3)n(C[C@H](O)C(F)(F)F)c2=O)nn1-c1cccc(Cl)c1 [PECAVAPTAN] | 3.8% | 19% | 5.09% | 11.3% | -4.82% | -3.07% | 9.3% | -2.92% | -8.63% | -1.76% | -0.22% | 8.75% | 5.79% | -5.17% | 19.1% | 11.1% | 0.0005 µM (active) | 10.8% | 1.32% | -2.41% | inhibition [21]: 5.86%; inhibition [22]: -1.63%; inhibition [23]: -4.35%; inhibition [24]: 6%; inhibition [25]: 0.69%; inhibition [26]: -5.91%; inhibition [27]: 2.01%; inhibition [28]: 27%
